Patent EP3354264A1, “PROPHYLAXIS AND TREATMENT OF NEISSERIA GONORRHOEAE EYE INFECTION” (Kingston University Higher Education Corporation, priority 2017, dated 2018)
In brackets after ≈: the same amount, converted by molar mass. Several values for one entry are separate records, joined by “and”; a condition that tells them apart may be missing. Identical values can stand only once. Like-named read-outs stand apart in the source and are kept apart here.

How the values were obtained:
Chorioallantoic Membrane = conditions: organic acids 1 mg/ml, sodium hydroxide 0.1M; for Total Score: number
Description: The HET-CAM was performed according to Alany et al., (2006), J Control Release 111: 145-152. Fertilised white leghorn eggs were purchased from Henry Stewart & Co. Ltd (Fakenham, Norfolk, UK) and delivered to Kingston University. All eggs were checked for damage and incubated at 37°C with 60-70 % relative humidity. At day 4 the eggs were removed from their shells and placed in incubation chambers. At day 9, the CAMs were tested. This was done by applying 200 µl of the testing material and recording results at 30, 120, and 300 seconds. At each of these time-points the effect of the substance on the CAM was evaluated by assessing them against the scoring system (Vanerp YHM, et al., (1990), Toxicology in Vitro 4: 267-269).

Bovine eyes = conditions: test compounds 1 mM in saline, controls as labelled, exposure 30 seconds
Description: Bovine eyes were collected from a local slaughter house (ABP, Guildford, Surrey, UK) and were transported in cold saline for testing at the laboratory. Each eye was first examined for signs of damage before use. The test was conducted according to Abdelkader et al., (2012), Int J Pharm 432: 1-10. The exposure time of the test substances was 30 seconds. The selected bactericidal compounds were tested at a concentration of 1 mM in saline. Overall, the concentration of ethanol carry-over from the stock of the organic acids was therefore 1 %. […] The test area of the cornea was then washed with 10 ml saline.
Corneal damage to the test area was assessed by fluorescein staining and examined under a cobalt blue filter. […] Each of the seven candidates were tested in triplicate, each test was performed on a separate day from a different batch of eye balls. Corneal histology was done as Abdelkader et al., (2012), Int J Pharm 432: 1-10 by evaluating the damage to the epithelial layer and stroma of the cornea after Haematoxylin and Eosin staining.

[1] = test system: Neisseria gonorrhoeae strain NCCP11945; assay: Growth inhibition screen of organic acids; type: cell-based; conditions: strain NCCP11945, in vitro, 1 mM
Description: (§1) The well characterised N. gonorrhoeae strain NCCP11945 (Chung GT et al. (2008) Complete genome sequence of Neisseria gonorrhoeae NCCP11945. Journal of Bacteriology 190: 6035-6036) was used in the screening stage of this experiment. Eight isolates that were obtained from Public Health England from various European locations were used in the log reduction assays. All isolates were first cultured for 24 hours prior to testing by plating on GC solid medium (Oxoid Limited, Hampshire, UK) with Kellogg supplements and incubating at 37 °C, 5% CO2 (Kellogg DS, Jr., et al., (1963), J Bacteriol 85: 1274-1279).
(§2) A full list of all the organic acids tested in this study is in Table 1. The tested compounds include saturated and unsaturated fatty acids, monoglycerides, dicarboxylic acids, and fatty acid sodium salts. All compounds investigated were resuspended at a concentration of 100 mM in ethanol unless stated. All chemicals were obtained from Sigma-Aldrich (Poole, Dorset, UK).
Other organic acids were also active at this concentration, as noted in Table 1.

RBCs = assay: in vitro; type: cell-based, bovine
Description: (§3) Whole bovine blood was obtained from a local slaughter house (ABP, Guildford, Surrey, UK), adding 90 ml blood to 10 ml of 110 mM tri-sodium citrate anticoagulant. RBCs were isolated the same day. The RBCs were washed by three repeats of centrifugation (1,500 x g for 10 minutes) and resuspension in PBSG. Testing was done following European Union Reference Laboratory for alternatives to animal testing (EURL-ECVAM) guidelines (Lewis RW (2010) DB-ALM Protocol No. 99: Red blood cell (RBC) Test System. EURL ECVAM). The organic acids were made up in DMSO and diluted to a DMSO concentration maximum of 10 % (v/v). Samples were shaken at room temperature for 1 hour and then centrifuged at 10,000 rpm for 2 minutes. An aliquot of 750 µl of the supernatant was taken and absorbance at […] tested.

in vitro = type: cell-based, bovine; conditions: red blood cells
Description: as §3

[2] = test system: Neisseria gonorrhoeae strain NCCP11945; assay: Log reduction in artificial tear fluid; type: cell-based; conditions: two minute exposure
Description: Artificial tear fluid was made as in Mirejovsky et al., Optometry and Vision Science, (1991), 68: 858-864. […] Neisseria gonorrhoeae strain NCCP11945 was used in these experiments. As the previous log reductions, […] were suspended in GC broth. The cell suspension was centrifuged to remove the culture medium and the bacteria resuspended in the tear fluid. This was then added to the concentrated organic acid candidates. The cells were then counted again after two minute exposure to estimate any reduction due to the exposure to the fatty acid.
In a first experiment, the artificial tear fluid formulation includes calcium chloride to mimic the calcium in natural tears. As shown by the results in Figure 8, the anti-gonococcal properties of myristoleic acid (C14:1cΔ9), palmitoleic acid (C16:1cΔ9), linolenic acid (C18:3cΔ9,12,15), and monocaprin(C10) are retained in the artificial tear fluid formulation containing calcium chloride.
In a second experiment, calcium chloride was omitted from the artificial tear fluid formulation. The results in Figure 9 indicate that the anti-gonococcal properties of lauric acid (C12:0), tridecanoic acid (C13:0), and sodium dodecanoate were retained in the artificial tear fluid formulation without.

[3] = test system: panel of nine N. gonorrhoeae isolates (strain NCCP11945 and eight isolates from Public Health England); assay: Minimum bactericidal concentration by log reduction, panel of isolates; type: cell-based; conditions: Neisseria gonorrhoeae, 2 min, read-out: Minimum bactericidal concentration
Description: as §1
(§4) Log reductions were done using the same method as in Bergsson et al., (1999), Antimicrob Agents Chemother 43: 2790-2792. Briefly, cells were suspended in GC broth (18 g/L GC Base (Oxiod, Limited) with added defined supplements) to an optical density of 0.3 at 520 nm which is approximately equivalent to 107 - 108 cells per millilitre (Macfarlane DE et al. (1980) Improved media for the culture of Neisseria gonorrhoeae. J Med Microbiol 13: 597-607). Five hundred microliters of the suspension was then added to 5 µl of the 100 mM stocks to give a final concentration of 1 mM. A negative control was also done to calculate the reduction in bacterial titre by adding 500 µl to 5 µl ethanol. The tubes were then mixed at room temperature for two minutes and immediately diluted in a 10 fold dilution series down to 10-4. The dilutions were plated by spreading 10 µl on a quarter of a plate and 100 µl of the neat solution was also plated. Plates were incubated at 37 °C for 48 hours. All samples were plated in duplicate. A reduction in viable cell count by more than 4 log10 was deemed to be bactericidal and was selected for further investigation. Bactericidal compounds were then tested at concentrations of 0.75, 0.5, and 0.25 mM (0.125 mM was also used in some potent compounds) to find the minimum bactericidal concentration. Additional testing at lower concentrations was also done on the eight clinical isolates of European origin.
As shown by the results in Table 3 which presents data on the log reductions of bacterial cell counts, against a panel of nine N. gonorrhoeae isolates (strain NCCP11945 and eight isolates from Public Health England), myristoleic acid (C14:1cΔ9), palmitoleic acid (C16:1cΔ9), linolenic acid (C18:3cΔ9,12,15), and monocaprin (C10) have a minimal bactericidal concentration, defined as the lowest concentration tested to give an average 4 log10 reduction in bacterial count after a two minute exposure, of 0.5 mM. Against a panel of nine N. gonorrhoeae isolates, lauric acid (C12:0), tridecanoic acid (C13:0), and sodium dodecanoate have a minimal bactericidal concentration of 0.75 mM.

[4] = test system: Neisseria gonorrhoeae strain NCCP11945; assay: Measurement of bactericidal action (log reduction); type: cell-based; conditions: for log reduction at 1000 µM: Neisseria gonorrhoeae
Description: as §1, §2, §4

Neisseria meningitidis = conditions: at the concentration used for the antigonococcal ocular formulation; cited from earlier work
Pseudomonas aeruginosa = conditions: at the concentration used for the antigonococcal ocular formulation; cited from earlier work
Staphylococcus aureus = conditions: at the concentration used for the antigonococcal ocular formulation; cited from earlier work
Streptococcus pneumoniae = conditions: at the concentration used for the antigonococcal ocular formulation; cited from earlier work
[5] = test system: N. gonorrhoeae strain NCCP11945; assay: Cell culture infection model (primary cornea epithelial cells); type: cell-based; conditions: 1 mM, added 90 minutes after infection; Figure 10
Description: Primary cornea epithelial cells were obtained from Life Technologies (Paisley, Glasgow, UK) and grown in Keratinocyte serum free medium (Life Technologies), at 37 °C with 5 % CO2 until 80 % confluent. The cells were then trypsin treated, washed, added to 24 welled plates and incubated for a further 24 hours. The medium was replaced and a fresh P+, Opa+ cells N. gonorrhoeae strain NCCP11945 suspension (approximately 10^7 CFU/ml) was added to the cells to get a multiplicity of infection of 10. All samples were done in duplicate. Monocaprin (1 mM, 0.5 mM, 0.25 mM, and 0.125 mM) was either added directly after the bacteria or after 90 minutes. […] The total time of the infection was three hours. The cells were washed five times with 1 ml PBS for each well. The wells were treated with warmed 1 % saponin in PBS and incubated for 10 minutes at 37 °C. After this, 900 µl GC broth was added and log reductions calculated as above. The CFUs of the drug exposed wells were compared to the CFU counts of the Infection controls to estimate the log reduction caused by the action of the monocaprin. Comparisons of the log reductions at different drug administration times at given concentrations was analysed in an unpaired t test using GraphPad Prism (version 6.01).

[6] = at their minimum bactericidal concentration
[7] = bovine RBCs, shaken 1 hour at room temperature, read-out: H50
[8] = bovine RBCs, shaken 1 hour at room temperature, read-out: H50 (mg/L)
[9] = artificial tear fluid without calcium chloride, Figure 9
[10] = NCCP11945, 2 min, read-out: Log reduction of Neisseria gonorrhoeae, strain NCCP11945, 1 mM, 2 minutes
[11] = strain NCCP11945, 1 mM, 2 minutes
[12] = lowest concentration tested giving an average 4 log10 reduction after two minute exposure, nine isolates
[13] = 2 min, strain NCCP11945, 1 mM, 2 minutes, read-out: Log reduction of Neisseria gonorrhoeae

Row | SMILES | Total Score (Chorioallantoic Membrane) | Inhibits growth of Neisseria gonorrhoeae [1] | RBC lysis assay prediction of irritation (RBCs; [6]) | HC50 at 1 h (in vitro; [7]) [mM] | HC50 at 1 h (in vitro; [8]) [mg/L] | anti-gonococcal properties in artificial tear fluid [2, 9] | MBC [3] [µM] | log reduction at 1000 µM [4, 10] | Log reduction of Neisseria gonorrhoeae [4, 11] | MBC [3, 12] [µM] | log reduction at 1000 µM [4, 13] | RBC lysis assay prediction of irritation (RBCs) | other results
1 | CC(C)=O [Acetone, reference compound] | 14 |  |  |  |  |  |  |  |  |  |  |  | Total Score (irritation grade in words) (Chorioallantoic Membrane): Severe; BCOP classification (Bovine eyes): Strong irritant
2 | CCCCCCCCCCCC(=O)O [Lauric acid 12:0, dodecanoic acid] | 0 | Yes | not irritating | 1 to 2 | 200 to 400 | retained | 750 (≈ 150 µg/mL) | > 6 | able to cause a log reduction |  |  |  | Inhibits growth of Neisseria gonorrhoeae ([1]; listed as lauric acid): able to inhibit growth; Total Score (irritation grade in words) (Chorioallantoic Membrane; listed as Lauric acid): None; BCOP classification (Bovine eyes; listed as Lauric acid): Non-irritant; BCOP classification (Bovine eyes; listed as lauric acid): will not cause irritation
3 | CCCCCCCCCC(=O)OCC(O)CO (centres unmarked) [Monocaprin C10, Monocaprin] |  | Yes | not irritating | 1.6 to 2.4 | 400 to 600 |  |  |  | able to cause a log reduction | 500 (≈ 123 µg/mL) | > 6 |  | bactericidal to Neisseria meningitidis (Neisseria meningitidis): bactericidal; Inhibits growth of Neisseria gonorrhoeae ([1]; listed as monocaprin): able to inhibit growth; bactericidal to Pseudomonas aeruginosa (Pseudomonas aeruginosa): bactericidal; bactericidal to Staphylococcus aureus (Staphylococcus aureus): bactericidal; bactericidal to Streptococcus pneumoniae (Streptococcus pneumoniae): bactericidal; anti-gonococcal properties in artificial tear fluid ([2]; artificial tear fluid containing calcium chloride, Figure 8): retained; kill of Neisseria gonorrhoeae that has infected human epithelial cells [5]: able to kill
4 | CCCCCCCCCCCC(=O)[O-].[Na+] [Sodium dodecanoate] |  | Yes |  |  |  | retained | 750 | > 6 | able to cause a log reduction |  |  | not irritating | Inhibits growth of Neisseria gonorrhoeae ([1]; listed as sodium dodecanoate): able to inhibit growth; HC50 at 1 h (in vitro; bovine): 200 µg/mL to 400 µg/mL and 900 µM to 1.8 mM
5 | CCCCCCCCCCCCC(=O)O [Tridecanoic acid 13:0, Tridecanoic acid] |  | Yes |  | > 4.67 | > 1000 | retained |  |  | able to cause a log reduction | 750 (≈ 161 µg/mL) | > 6 | not irritating | Inhibits growth of Neisseria gonorrhoeae ([1]; listed as tridecanoic acid): able to inhibit growth
